Source: publication PMC4445529, “Small molecule inhibition of group I p21-activated kinases in breast cancer induces apoptosis and potentiates the activity of microtubule stabilizing agents” (Breast Cancer Research : BCR, 2015)

Target: T1, PAK4 (Homo sapiens, UniProt O96013)
T1 construct: kinase domain
Experiment: Z'-LYTE FRET peptide kinase assay with recombinant enzyme
Type: biochemical

T1 sequence (O96013 291-591 limits assumed): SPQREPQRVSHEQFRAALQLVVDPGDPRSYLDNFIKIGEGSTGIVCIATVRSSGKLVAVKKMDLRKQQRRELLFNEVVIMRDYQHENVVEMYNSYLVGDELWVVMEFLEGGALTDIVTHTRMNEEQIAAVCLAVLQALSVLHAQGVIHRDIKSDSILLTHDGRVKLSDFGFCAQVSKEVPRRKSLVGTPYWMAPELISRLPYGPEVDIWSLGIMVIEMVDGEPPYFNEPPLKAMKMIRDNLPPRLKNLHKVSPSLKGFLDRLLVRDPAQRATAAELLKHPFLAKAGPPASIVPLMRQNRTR

CCn1c(=O)c(-c2ccc(-c3cncc(C)n3)cc2Cl)cc2cnc(NCCC3CCN(C)CC3)nc21 [FRAX1036]
Ki: 2400 nM
